# Assay results reported in article PMC7401273, “Unexpected Enhancement of HDACs Inhibition by MeS Substitution at C-2 Position of Fluoro Largazole” (Marine Drugs, 2020).
# Like-named read-outs stand apart in the source and are kept apart here.
# Key:
# recombinant human HDAC1 [1] = molecular target: T1, recombinant human HDAC1 (Homo sapiens, UniProt Q13547); parameters: method as in PMID 31163697; conditions: previously reported data, cited from earlier work; for Selectivity (HDAC1/6): selectivity of HDAC1 over HDAC6
# T1 construct: purchased BPS Biosciences
# recombinant human HDAC2 [2] = molecular target: T2, recombinant human HDAC2 (Homo sapiens, UniProt Q92769); parameters: method as in PMID 31163697; conditions: previously reported data; cited from earlier work
# T2 construct: purchased BPS Biosciences
# recombinant human HDAC6 [3] = molecular target: T3, recombinant human HDAC6 (Homo sapiens, UniProt Q9UBN7); parameters: method as in PMID 31163697; conditions: previously reported data; cited from earlier work
# T3 construct: purchased BPS Biosciences
# T3 sequence (Q9UBN7 1-1215): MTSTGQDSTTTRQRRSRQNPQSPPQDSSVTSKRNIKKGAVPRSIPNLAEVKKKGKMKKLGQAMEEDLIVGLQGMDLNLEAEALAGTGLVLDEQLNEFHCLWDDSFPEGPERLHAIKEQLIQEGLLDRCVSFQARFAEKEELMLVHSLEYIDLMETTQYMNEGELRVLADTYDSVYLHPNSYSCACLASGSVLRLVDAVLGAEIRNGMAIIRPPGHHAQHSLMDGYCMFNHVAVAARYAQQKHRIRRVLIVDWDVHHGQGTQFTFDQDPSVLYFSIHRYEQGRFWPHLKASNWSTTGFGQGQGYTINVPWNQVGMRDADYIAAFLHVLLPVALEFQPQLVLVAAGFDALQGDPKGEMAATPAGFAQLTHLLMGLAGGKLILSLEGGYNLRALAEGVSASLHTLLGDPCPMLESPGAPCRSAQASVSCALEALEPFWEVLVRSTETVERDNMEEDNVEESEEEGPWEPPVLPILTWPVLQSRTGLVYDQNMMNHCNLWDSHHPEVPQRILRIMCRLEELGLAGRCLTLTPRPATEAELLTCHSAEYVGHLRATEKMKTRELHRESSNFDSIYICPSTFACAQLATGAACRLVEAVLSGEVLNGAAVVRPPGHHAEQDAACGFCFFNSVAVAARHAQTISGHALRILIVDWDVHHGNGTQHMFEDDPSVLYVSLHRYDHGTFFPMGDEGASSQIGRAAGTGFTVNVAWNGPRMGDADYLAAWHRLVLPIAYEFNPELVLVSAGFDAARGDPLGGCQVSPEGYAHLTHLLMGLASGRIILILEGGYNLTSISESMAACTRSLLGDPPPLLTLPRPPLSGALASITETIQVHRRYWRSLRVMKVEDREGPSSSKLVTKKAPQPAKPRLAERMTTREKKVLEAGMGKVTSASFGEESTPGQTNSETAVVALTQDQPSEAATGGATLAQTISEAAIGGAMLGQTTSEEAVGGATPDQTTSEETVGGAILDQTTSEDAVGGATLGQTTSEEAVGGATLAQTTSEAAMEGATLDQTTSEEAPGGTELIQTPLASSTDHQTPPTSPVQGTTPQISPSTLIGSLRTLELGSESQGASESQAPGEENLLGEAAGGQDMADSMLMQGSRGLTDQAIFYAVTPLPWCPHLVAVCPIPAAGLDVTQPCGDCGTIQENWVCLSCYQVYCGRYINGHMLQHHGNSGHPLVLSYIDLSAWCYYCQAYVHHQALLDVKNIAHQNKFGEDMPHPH
# recombinant human HDAC8 [4] = molecular target: T4, recombinant human HDAC8 (Homo sapiens, UniProt Q9BY41); parameters: method as in PMID 31163697; conditions: previously reported data; cited from earlier work
# T4 construct: purchased BPS Biosciences
# T4 sequence (Q9BY41 1-377): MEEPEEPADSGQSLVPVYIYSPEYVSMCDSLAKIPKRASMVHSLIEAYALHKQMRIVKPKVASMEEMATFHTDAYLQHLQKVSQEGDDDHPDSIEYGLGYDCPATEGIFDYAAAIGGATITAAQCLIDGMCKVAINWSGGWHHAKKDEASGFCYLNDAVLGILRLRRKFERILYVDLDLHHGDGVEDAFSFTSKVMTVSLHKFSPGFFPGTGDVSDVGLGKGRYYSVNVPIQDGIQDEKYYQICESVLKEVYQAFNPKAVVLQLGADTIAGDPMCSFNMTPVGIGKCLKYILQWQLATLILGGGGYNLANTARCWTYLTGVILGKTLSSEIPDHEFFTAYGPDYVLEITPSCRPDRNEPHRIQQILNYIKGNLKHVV
# recombinant human HDAC3 [5] = molecular target: T5, recombinant human HDAC3 (Homo sapiens, UniProt O15379); parameters: method as in PMID 31163697; conditions: previously reported data; cited from earlier work
# T5 construct: purchased BPS Biosciences
# Eca-109 cells = assay: in vitro growth inhibition (MTT), Eca-109 cells; type: cell-based; conditions: Homo sapiens, 72 h, at least seven-dose, duplicate
# Procedure: (§1) Eca-109, Bel 7402 and U937 cell lines were purchased from ATCC (Manassas, VA, USA), and the other tested cell lines were obtained from the Shanghai Institute for Biological Sciences, Chinese Academy of Sciences (Shanghai, China). MDA-MB-231, Hela, Eca-109 and Bel 7402 cells were cultured in DMEM medium supplemented with 10% heat-inactivated fetal bovine serum, 100 U/mL penicillin and 100 μg/mL streptomycin (Beyotime Biotech, Shanghai, China). A549 cells were cultured in F-12K medium supplemented with 10% heat-inactivated fetal bovine serum, 100 U/mL penicillin and 100 μg/mL streptomycin. HCT116 and SK-OV-3 cells were cultured in McCoy’s 5A medium supplemented with 10% heat-inactivated fetal bovine serum, 100 U/mL penicillin and 100 μg/mL streptomycin. U937 cells were cultured in RPMI-1640 medium supplemented with 10% heat inactivated fetal bovine serum, 100 U/mL penicillin and 100 μg/mL streptomycin. All cells were cultured at 37 °C in humidified air containing 5% CO2. According to our previous method, A549, HCT116, MDA-MB-231, SK-OV-3, Hela, Eca-109, Bel 7403 and U937 (600,000 cells/well) were seeded in 96-well plates and incubated for 24 h before being treated with various concentration of compounds or solvent control. […] The absorbance at 550 nm was measured by a SpectraMAX340 microplate reader (Molecular Devices, San Jose, CA, USA) with a reference wavelength at 690 nm. […]
# HCT116 cells = assay: in vitro growth inhibition (MTT), HCT116 cells; type: cell-based; conditions: Homo sapiens, HCT-116, 72 h, at least seven-dose, duplicate
# Procedure: (§2) Eca-109, Bel 7402 and U937 cell lines were purchased from ATCC (Manassas, VA, USA), and the other tested cell lines were obtained from the Shanghai Institute for Biological Sciences, Chinese Academy of Sciences (Shanghai, China). MDA-MB-231, Hela, Eca-109 and Bel 7402 cells were cultured in DMEM medium supplemented with 10% heat-inactivated fetal bovine serum, 100 U/mL penicillin and 100 μg/mL streptomycin (Beyotime Biotech, Shanghai, China). A549 cells were cultured in F-12K medium supplemented with 10% heat-inactivated fetal bovine serum, 100 U/mL penicillin and 100 μg/mL streptomycin. HCT116 and SK-OV-3 cells were cultured in McCoy’s 5A medium supplemented with 10% heat-inactivated fetal bovine serum, 100 U/mL penicillin and 100 μg/mL streptomycin. U937 cells were cultured in RPMI-1640 medium supplemented with 10% heat inactivated fetal bovine serum, 100 U/mL penicillin and 100 μg/mL streptomycin. All cells were cultured at 37 °C in humidified air containing 5% CO2. According to our previous method, A549, HCT116, MDA-MB-231, SK-OV-3, Hela, Eca-109, Bel 7403 and U937 (600,000 cells/well) were seeded in 96-well plates and incubated for 24 h before being treated with various concentration of compounds or solvent control. Cells were further incubated for 72 h and then treated with MTT and incubated for another 3 h. The media was then removed and 100 μL DMSO was added to each well. The absorbance at 550 nm was measured by a SpectraMAX340 microplate reader (Molecular Devices, San Jose, CA, USA) with a reference wavelength at 690 nm. Adriamycin was used as a positive control in the assay.
# Bel 7402 cells = assay: in vitro growth inhibition (MTT), Bel 7402 cells; type: cell-based; conditions: Homo sapiens, 72 h, at least seven-dose, duplicate
# Procedure: as §1
# MDA-MB-231 cells = assay: in vitro growth inhibition (MTT), MDA-MB-231 cells; type: cell-based; conditions: Homo sapiens, 72 h, at least seven-dose, duplicate
# Procedure: as §2
# SK-OV-3 cells = assay: in vitro growth inhibition (MTT), SK-OV-3 cells; type: cell-based; conditions: Homo sapiens, 72 h, at least seven-dose, duplicate
# Procedure: as §2
# U937 cells = assay: in vitro growth inhibition (MTT), U937 cells; type: cell-based; conditions: Homo sapiens, U-937, 72 h, at least seven-dose, duplicate
# Procedure: as §1
# A549 cells = assay: in vitro growth inhibition (MTT), A549 cells; type: cell-based; conditions: Homo sapiens, 72 h, at least seven-dose, duplicate
# Procedure: as §2
# Hela cells = assay: in vitro growth inhibition (MTT), Hela cells; type: cell-based; conditions: Homo sapiens, 72 h, at least seven-dose, duplicate
# Procedure: as §1
# recombinant human HDAC2 [6] = molecular target: T2, recombinant human HDAC2; assay: recombinant human HDAC2 enzymatic assay; type: biochemical; conditions: 10-dose IC50 mode in duplicate, three-fold serial dilution
# Procedure: The assays were carried out by Shanghai ChemPartner Co., Ltd (Shanghai, China), according to our previous method [23, 24]. Briefly, different concentrations of compounds were incubated with recombinant human HDAC1, HDAC2, HDAC3, HDAC6 and HDAC8 (BPS Biosciences, San Diego, CA, USA) at room temperature for 15 min, which was followed by adding Ac-peptide-AMC substrates to initiate the reaction in Tris-based assay buffer. Reaction mixtures were incubated at room temperature for 60 min in HDAC1, HDAC2, HDAC3 and HDAC6 assays, and were incubated for 240 min in HDAC8 assay. Then, the stop solution containing trypsin was added. The coupled reaction was incubated for another 90 min at 37 °C. Fluorescent AMC released from substrate was measured in SynergyMx (BioTek, Winooski, VT, US) using filter sets as excitation = 355 nm and emission = 460 nm. IC50 values were calculated by GraphPad Prism software (7.0 version., GraphPad Software, San Diego, CA, USA).
# recombinant human HDAC3 [7] = molecular target: T5, recombinant human HDAC3; assay: recombinant human HDAC3 enzymatic assay; type: biochemical; conditions: 10-dose IC50 mode in duplicate, three-fold serial dilution
# Procedure: (§3) The assays were carried out by Shanghai ChemPartner Co., Ltd (Shanghai, China), according to our previous method. Briefly, different concentrations of compounds were incubated with recombinant human HDAC1, HDAC2, HDAC3, HDAC6 and HDAC8 (BPS Biosciences, San Diego, CA, USA) at room temperature for 15 min, which was followed by adding Ac-peptide-AMC substrates to initiate the reaction in Tris-based assay buffer. Reaction mixtures were incubated at room temperature for 60 min in HDAC1, HDAC2, HDAC3 and HDAC6 assays, and were incubated for 240 min in HDAC8 assay. Then, the stop solution containing trypsin was added. The coupled reaction was incubated for another 90 min at 37 °C. Fluorescent AMC released from substrate was measured in SynergyMx (BioTek, Winooski, VT, US) using filter sets as excitation = 355 nm and emission = 460 nm. IC50 values were calculated by GraphPad Prism software (7.0 version., GraphPad Software, San Diego, CA, USA).
# recombinant human HDAC6 [8] = molecular target: T3, recombinant human HDAC6; assay: recombinant human HDAC6 enzymatic assay; type: biochemical; conditions: 10-dose IC50 mode in duplicate, three-fold serial dilution
# Procedure: as §3
# recombinant human HDAC8 [9] = molecular target: T4, recombinant human HDAC8; assay: recombinant human HDAC8 enzymatic assay; type: biochemical; conditions: 10-dose IC50 mode in duplicate, three-fold serial dilution
# Procedure: as §3
# recombinant human HDAC1 [10] = molecular target: T1, recombinant human HDAC1; assay: recombinant human HDAC1 enzymatic assay; type: biochemical; conditions: 10-dose IC50 mode in duplicate, three-fold serial dilution
# Procedure: as §3
# [11] = system: A549, HCT116 and SK-OV-3 cells; assay: in vitro growth inhibition (MTT), range over three cell lines; type: cell-based; conditions: towards A549, HCT116 and SK-OV-3 cells
# Procedure: as §1
# T1 sequence (Q13547 whole entry): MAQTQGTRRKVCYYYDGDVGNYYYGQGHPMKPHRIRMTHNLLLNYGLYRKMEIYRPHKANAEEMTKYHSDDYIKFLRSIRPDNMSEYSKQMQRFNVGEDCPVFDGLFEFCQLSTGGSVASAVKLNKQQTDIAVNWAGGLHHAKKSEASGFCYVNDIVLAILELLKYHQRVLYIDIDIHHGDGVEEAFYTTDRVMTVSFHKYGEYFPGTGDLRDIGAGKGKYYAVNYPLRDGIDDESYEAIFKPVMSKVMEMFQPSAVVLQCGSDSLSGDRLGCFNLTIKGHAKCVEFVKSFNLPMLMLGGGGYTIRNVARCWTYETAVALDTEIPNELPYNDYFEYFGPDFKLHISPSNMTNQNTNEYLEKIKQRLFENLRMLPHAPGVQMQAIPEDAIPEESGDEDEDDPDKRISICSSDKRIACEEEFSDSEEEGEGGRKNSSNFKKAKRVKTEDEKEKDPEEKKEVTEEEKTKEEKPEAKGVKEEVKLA
# T5 sequence (O15379 whole entry): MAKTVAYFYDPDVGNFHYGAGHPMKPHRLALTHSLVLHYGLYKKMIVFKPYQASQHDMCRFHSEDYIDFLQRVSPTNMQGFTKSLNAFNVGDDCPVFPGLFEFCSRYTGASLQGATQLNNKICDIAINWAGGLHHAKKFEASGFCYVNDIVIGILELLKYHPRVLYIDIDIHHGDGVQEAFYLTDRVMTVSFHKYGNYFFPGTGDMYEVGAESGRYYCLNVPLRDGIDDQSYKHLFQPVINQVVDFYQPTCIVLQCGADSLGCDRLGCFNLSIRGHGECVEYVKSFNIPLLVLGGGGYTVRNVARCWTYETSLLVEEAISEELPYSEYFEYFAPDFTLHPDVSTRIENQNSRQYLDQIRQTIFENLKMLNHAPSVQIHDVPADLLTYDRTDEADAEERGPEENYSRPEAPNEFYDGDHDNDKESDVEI
# T5 sequence (Q9Y618 395-489 partner limits assumed): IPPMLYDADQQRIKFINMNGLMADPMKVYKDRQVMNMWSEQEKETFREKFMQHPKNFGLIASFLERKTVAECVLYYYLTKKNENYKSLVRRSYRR
# T2 sequence (Q92769 whole entry): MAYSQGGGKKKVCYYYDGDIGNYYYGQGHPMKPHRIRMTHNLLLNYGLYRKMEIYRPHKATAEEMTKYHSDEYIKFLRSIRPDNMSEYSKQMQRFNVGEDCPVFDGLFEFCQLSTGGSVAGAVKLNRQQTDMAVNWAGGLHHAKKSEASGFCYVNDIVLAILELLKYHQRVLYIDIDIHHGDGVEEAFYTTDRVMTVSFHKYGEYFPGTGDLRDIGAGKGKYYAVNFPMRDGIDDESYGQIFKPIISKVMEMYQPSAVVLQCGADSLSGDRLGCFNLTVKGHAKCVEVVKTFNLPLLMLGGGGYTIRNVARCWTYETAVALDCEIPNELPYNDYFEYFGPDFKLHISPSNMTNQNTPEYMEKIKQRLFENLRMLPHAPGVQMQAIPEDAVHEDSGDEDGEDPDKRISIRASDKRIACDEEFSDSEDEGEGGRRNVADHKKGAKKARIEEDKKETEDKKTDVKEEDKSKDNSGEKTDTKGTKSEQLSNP
Structure (SMILES),IC50 (recombinant human HDAC1 [1]) [nM],Selectivity (HDAC1/6) (recombinant human HDAC1 [1]),IC50 (recombinant human HDAC2 [2]) [nM],IC50 (recombinant human HDAC6 [3]) [nM],IC50 (recombinant human HDAC8 [4]) [nM],IC50 (recombinant human HDAC3 [5]) [nM],IC50 (Eca-109 cells) [nM],IC50 (HCT116 cells) [nM],IC50 (Bel 7402 cells) [nM],IC50 (MDA-MB-231 cells) [nM],IC50 (SK-OV-3 cells) [nM],IC50 (U937 cells) [nM],IC50 (A549 cells) [nM],IC50 (Hela cells) [nM],other results
CC(C)C1NC(=O)C2(C)CSC(=N2)c2csc(n2)CNC(=O)CC(C(F)=CCCS)OC1=O (centres unmarked) [Compound 15a],4.39 ± 0.17,68,21 ± 0.3,300 ± 5,8.38 ± 2.46,39.2 ± 2.3,,,,,,,,,
CC12CSC(=N1)c1csc(n1)CNC(=O)CC(C(F)=CCCS)OC(=O)C(Cc1ccccc1)NC2=O (centres unmarked) [Compound 15b],4.24 ± 0.38,80,16.3 ± 0.4,338 ± 17,17.5 ± 4.2,37.1 ± 0.8,,,,,,,,,
CCCCCCCC(=O)SCC/C=C/[C@@H]1CC(=O)NCc2nc(cs2)C2=N[C@@](C)(CS2)C(=O)N[C@@H](C(C)C)C(=O)O1 [largazole],,,,,,,100,110 ± 10,170 ± 20,4750 ± 1950,250 ± 170,20,520 ± 170,170 ± 10,
"CCCCCCCC(=O)SCC/C=C(\F)[C@@H]1CC(=O)NCc2nc(cs2)C2=N[C@@](C)(CS2)C(=O)NCC(=O)O1 [Compound 16d, S-((Z)-4-fluoro-4-((1^2Z,2^2Z,2^4R,8S)-2^4-methyl-3,6,10-trioxo-2^4,2^5-dihydro-7-oxa-4,11-diaza-1(4,2),2(2,4)-dithiazolacyclododecaphane-8-yl)but-3-en-1-yl) octanethioate]",,,,,,,,6620 ± 1860,,> 10000,> 10000,,> 10000,,
"CSCC1NC(=O)C2(C)CSC(=N2)c2csc(n2)CNC(=O)CC(C(F)=CCCS)OC1=O [Compound 15c, (1^2Z,2^2Z,2^4R,8S)-8-((Z)-1-fluoro-4-mercaptobut-1-en-1-yl)-2^4-methyl-5-((methylthio)methyl)-2^4,2^5-dihydro-7-oxa-4,11-diaza-1(4,2),2(2,4)-dithiazolacyclododecaphane-3,6,10-trione]",,,,,,,,,,,,,,,IC50 (recombinant human HDAC2 [6]): 1.33 ± 0.02 nM; IC50 (recombinant human HDAC3 [7]): 2.33 ± 0.15 nM; IC50 (recombinant human HDAC6 [8]): 23.9 nM; IC50 (recombinant human HDAC8 [9]): 0.44 ± 0.16 nM; IC50 (recombinant human HDAC1 [10]): 0.27 ± 0.02 nM
"CCCCCCCC(=O)SCC/C=C(\F)[C@@H]1CC(=O)NCc2nc(cs2)C2=N[C@@](C)(CS2)C(=O)N[C@@H](CSC)C(=O)O1 [Compound 16c, S-((Z)-4-fluoro-4-((1^2Z,2^2Z,2^4R,5R,8S)-2^4-methyl-5-((methylthio)methyl)-3,6,10-trioxo-2^4,2^5-dihydro-7-oxa-4,11-diaza-1(4,2),2(2,4)-dithiazolacyclododecaphane-8-yl)but-3-en-1-yl) octanethioate]",,,,,,,90 ± 20,1410 ± 540,250 ± 70,> 10000,3130 ± 500,80 ± 20,2920 ± 530,100 ± 10,IC50 [11]: 1410 to 3130 nM
